From patent publication EP4755878A1, “PHOTOCHROMIC COMPOUND, PHENOL DERIVATIVE, CURABLE COMPOSITION, OPTICAL ARTICLE, LENS, AND EYEGLASS” (TOKUYAMA CORPORATION, priority 2023, dated 2025)

Test: Photochromic properties of photochromic laminate (plastic lens) made by coating method
Format: physicochemical
Conditions: for Color developing density at 23°C: absorbance difference after 240 seconds irradiation at 23°C; for Color developing density at 35°C: absorbance difference after 240 seconds irradiation at 35°C; for Maximum absorption wavelength: after color development, second absorption wavelength (lower line of pair)
Excerpt: First, the photochromic compound obtained in Example 1 above, a photoinitiator, and polymerizable compounds were mixed to obtain a curable composition.
As the polymerizable compounds, a blend of the following radically-polymerizable monomers in combination was used.
• Polyethylene glycol dimethacrylate (average molecular weight: 736): 42 parts by mass • Polyethylene glycol dimethacrylate (average molecular weight: 536): 12 parts by mass • Trimethylolpropane trimethacrylate: 38 parts by mass • γ-Methacryloyloxypropyltrimethoxysilane: 2 parts by mass • Glycidyl methacrylate: 1 part by mass.
Note that in the curable composition, the photochromic compound obtained in Example 1 above was added to be 0.25 mmol taking the total amount of the radically-polymerizable monomers as 100 g. The following were used as additives.
(stabilizer, Irganox 245): 1 part by mass Bis(1,2,2,6,6-pentamethyl-4-piperidyl) sebacate: 3 parts by mass Leveling agent from DuPont Toray Specialty Materials K.K. (L7001): 0.1 parts by mass.
Note that the above-mentioned additives are described with blending ratios taking a total of the radically-polymerizable monomers as 100 parts by mass.
Using this curable composition, a photochromic laminate was obtained by a lamination process described below with the polymerization described below being carried out.
First, a thiourethane plastic lens with a center thickness of 2 mm and a refractive index of 1.60 was prepared as an optical substrate. Note that the thiourethane plastic lens had been alkaline-etched beforehand in a 10% aqueous sodium hydroxide solution at 50°C for 5 minutes, and then thoroughly washed with distilled water.
A spin coater (1H-DX2, manufactured by MIKASA CO., LTD) was used to coat a surface of the above-mentioned plastic lens with a moisture-curable primer (product name: TR-SC-P, manufactured by Tokuyama Corporation) at a rotation speed of 70 rpm for 15 seconds, followed by at 1000 rpm for 10 seconds. Then, about 2 g of the photochromic curable composition obtained as above was spin-coated at a rotation speed of 60 rpm for 40 seconds, followed by at 600 rpm for 10 to 20 seconds so as to achieve a photochromic coating layer with a film thickness of 40 µm.
The lens having the surface coated with the photochromic curable composition (photochromic coating layer) was irradiated with light for 90 seconds in a nitrogen gas atmosphere using a metal halide lamp with an output of 200 mW/cm^2 to cure the coating film. The coating was then further heated at 110°C for 1 hour to produce a photochromic laminate with a photochromic layer.
Photochromic laminates were produced using the photochromic compounds obtained in Examples 2 to 19 in the same manner as in Example 20.
Photochromic laminates were obtained in the same manner as in Example 20 using photochromic compounds represented by the following formulas (A) to (F). [drawing 143] [drawing 144] [drawing 145] [drawing 146] [drawing 147] [drawing 148] [drawing 149] [drawing 150]
The resulting photochromic laminates were evaluated by the methods described below.
Table 3 summarizes the results of Examples 20, 32, and 34, and Comparative Examples 1 to 6, and Table 4 summarizes the results of Examples 21 to 31, 33, and 35 to 38. The relationship between the fading half-life at 23°C and the color development ratio at the higher temperature of the photochromic laminates according to Examples and Comparative Examples are shown in a graph in FIG. 1.
Photochromic laminates were formed using the photochromic compound obtained in Examples 61 to 71 in the same manner as in Example 20.

| Color developing density at 23°C (first absorption wavelength) | Color developing density at 23°C (second absorption wavelength) | Color developing density at 35°C (first absorption wavelength) | Color developing density at 35°C (second absorption wavelength) | Maximum absorption wavelength [nm] | SMILES |
| --- | --- | --- | --- | --- | --- |
| 0.71 - | 0.96 - | 0.46 - | 0.63 - | 579 | COc1ccc(C2(c3ccc(OC)cc3)C=Cc3c4c(c5ccc(OC)cc5c3O2)-c2ccc(Oc3ccccc3)cc2C4(C)C)cc1 [Formula(E), reference compound] |
| 1.43 - | 1.36 - | 1.17 - | 1.10 - | 643 | CCCC1(CCC)c2cc(N(C)c3ccccc3)ccc2-c2c1c1c(c3cc(OC)c(-c4ccc(N5CC(C)OC(C)C5)cc4)cc23)OC(c2ccc(N3CCOCC3)cc2)(c2ccc(OC)c(OC)c2)C=C1 (centres unmarked) [Formula (71-5)] |
| 0.84 - | 1.00 - | 0.60 - | 0.72 - | 639 | CCC1(CC)c2cc(N(C)c3ccccc3)ccc2-c2c1c1c(c3cc(OC)c(-c4ccc(OC)cc4OC)cc23)OC(c2ccc(OC)cc2)(c2ccc(N3CCOCC3)cc2)C=C1 (centres unmarked) [Formula (67-2)] |
| 0.37 - | 0.77 - | 0.22 - | 0.46 - | 598 | CCCCCCOc1ccc(C2(c3ccc(OCCCCCC)cc3)C=Cc3c4c(c5ccc(OC(F)(F)F)cc5c3O2)-c2ccc(N(C)c3ccc(C(F)(F)F)cc3)cc2C42CCC(CC)(CC)CC2)cc1 [Formula (6-3)] |
| 1.37 - | 1.03 - | 1.09 - | 0.82 - | 602 | CCCCCC1(CCCCC)c2cc(N3CCOc4ccccc43)ccc2-c2c1c1c(c3cc(OC)c(-c4ccc(N5CCOc6ccccc65)cc4)cc23)OC(c2ccc(OC)cc2)(c2ccc(OC)cc2)C=C1 [Formula (66-5)] |
| 0.71 - | 0.80 - | 0.50 - | 0.57 - | 626 | CCCCOc1ccc(C2(c3ccc(OC)cc3)C=Cc3c4c(c5cc(-c6ccc(C(F)(F)F)cc6)c(OC)cc5c3O2)-c2ccc(N(C)c3ccccc3)cc2C4(CCC)CCC)cc1 (centres unmarked) [Formula (63-2)] |
| 0.85 - | 0.77 - | 0.57 - | 0.53 - | 623 | CCCCOCCC1(CCOCCCC)c2cc(N(c3ccccc3)c3ccccc3)ccc2-c2c1c1c(c3cc(OC)c(N(C)c4ccc(C(F)(F)F)cc4)cc23)OC(c2ccc(OC)cc2)(c2ccc(OCCC)cc2)C=C1 (centres unmarked) [Formula (65-2)] |
| 0.72 - | 1.18 - | 0.53 - | 0.88 - | 596 | CCCOc1ccc(C2(c3ccc(OCCC)cc3)C=Cc3c4c(c5ccc(-c6ccc(OC)cc6OC)cc5c3O2)-c2ccc(N(C)c3ccc(F)cc3)cc2C4(CC)CC)cc1 [Formula (5-4)] |
| 0.85 - | 0.96 - | 0.61 - | 0.70 - | 613 | CCCC1(CCC)c2cc(N3CCCc4ccccc43)ccc2-c2c1c1c(c3cc(OC)ccc23)OC(c2ccc(OC)cc2)(c2ccc(OCCCO)cc2)C=C1 (centres unmarked) [Formula (17-3)] |
| 0.55 - | 0.88 - | 0.34 - | 0.57 - | 629 | CCC1(CC)c2cc(N3CCOc4ccccc43)ccc2-c2c1c1c(c3cc(OC)ccc23)OC(c2ccc(OCCOC(=O)CCCCCCCCC(=O)OCCOc3ccc(C4(c5ccc(N6CCOCC6)cc5)C=Cc5c6c(c7ccc(OC)cc7c5O4)-c4ccc(N5CCOc7ccccc75)cc4C6(CC)CC)cc3)cc2)(c2ccc(N3CCOCC3)cc2)C=C1 (centres unmarked) [Formula (19-3)] |
| 1.24 - | 1.01 - | 0.83 - | 0.68 - | 594 | COCCN(c1ccccc1)c1ccc2c(c1)C(CCOC)(CCOC)c1c3c(c4cc(C)c(N5CCOCC5)cc4c1-2)OC(c1ccc(OC)cc1)(c1ccc(OC)cc1)C=C3 [Formula (10-3)] |
| 1.20 - | 0.90 - | 0.88 - | 0.66 - | 625 | COCCOCCOCCC1(CCOCCOCCOC)c2cc(N(c3ccccc3)c3ccccc3)ccc2-c2c1c1c(c3cc(OC)c(-c4c(OC)cc(OC)cc4OC)cc23)OC(c2ccc(OC)cc2)(c2ccc(OC)cc2)C=C1 [Formula (62-5)] |
| 1.37 - | 0.88 - | 1.03 - | 0.64 - | 619 | CCCOc1ccc(C2(c3ccc(OCCC)cc3)C=Cc3c4c(c5cc(N(C)c6ccccc6)c(OC)cc5c3O2)-c2ccc(N(C)c3ccccc3)cc2C4(CCC)CCC)cc1 [Formula (61-4)] |
| 1.44 - | 1.24 - | 1.16 - | 1.01 - | 621 | CCCCCCC1(CCCCCC)c2cc(N(c3ccccc3)c3ccccc3)ccc2-c2c1c1c(c3cc(OC)c(-c4ccccc4N4CCOCC4)cc23)OC(c2ccc(OC)cc2)(c2ccc(OC)c(F)c2)C=C1 (centres unmarked) [Formula (70-4)] |
| 0.79 - | 0.73 - | 0.51 - | 0.47 - | 636 | CCCCOCCC1(CCOCCCC)c2cc(N(c3ccccc3)c3ccc(C)cc3)ccc2-c2c1c1c(c3cc(OC)c(OC)cc23)OC(c2ccc(OC)cc2)(c2ccc(N3CCOCC3)cc2)C=C1 (centres unmarked) [Formula (68-2)] |
| 0.62 - | 0.75 - | 0.37 - | 0.45 - | 565 | COc1ccc(C2(c3ccc(OC)cc3)C=Cc3c4c(c5ccc(OC)cc5c3O2)-c2ccc(OC(F)(F)F)cc2C4(C)C)cc1 [Formula(F), reference compound] |
| 1.94 - | 0.92 - | 1.38 - | 0.67 - | 611 | CCCCCCOc1ccc(C2(c3ccc(OCCCCCC)cc3)C=Cc3c4c(c5cc(N6CCC(C(F)(F)F)CC6)c(OC)cc5c3O2)-c2ccc(N(c3ccccc3)c3ccccc3)cc2C42CCC3(CCCCC3)CC2)cc1 [Formula (64-3)] |
| 0.51 - | 0.51 - | 0.31 - | 0.30 - | 620 | COc1ccc(C2(c3ccc(N4CCOCC4)cc3)C=Cc3c4c(c5cc(Sc6c(C)cccc6C)c(OC)cc5c3O2)-c2ccc(N3CCOc5cc(F)ccc53)cc2C42CC(C)(C)CC(C)(C)C2)cc1 (centres unmarked) [Formula (11-4)] |
| 1.76 - | 1.28 - | 1.32 - | 0.96 - | 640 | COCCCC1(CCCOC)c2cc(N(c3ccccc3)c3ccccc3)ccc2-c2c1c1c(c3cc(OC)c(N4CCOCC4)cc23)OC(c2ccc(C)cc2)(c2ccc(N(C)c3ccccc3)cc2)C=C1 (centres unmarked) [Formula (69-2)] |
